Test results: patent US20040023961A1, “Aryl ureas with raf kinase and angiogenisis inhibiting activity” (BAYER CORPORATION, priority 2002, published 2004)

Columns and labels:
[1] = test system: neovascularization of the joint; conditions: rat collagen arthritis model; Peacock et al. 1992; cited from earlier work
Flk-1 = Flk-1 (Mus musculus, UniProt P35918); test: In Vitro Flk-1 ELISA Assay; format: biochemical, murine; conditions: poly-Glu-Tyr coated plates, 3.3 μM ATP
Procedure: In Vitro Flk-1 ELISA Assay
The Flk-1 ELISA assay was performed on 96-well Costar 9018 high-binding plates coated overnight with poly-Glu-Tyr (Sigma #P 0275). After coating, plates were washed with 20 mM HEPES pH=7.5, 150 mM NaCl, 0.1% Tween-20. These plates were then blocked with Blocking Buffer (20 mM HEPES pH=7.5, 150 mM NaCl, 1% BSA, 0.1% Tween-20) for 1 hr at room temperature on a plate shaker. After washing, the reaction was prepared using 20 mM HEPES pH=7.5, 100 mM KCl, 10 mM MgCl2, 3 mM MnCl2 0.05% glycerol, 0.005% Triton X-100, 1 mM BME and 3.3 μM ATP. The assay was initiated with Flk-1 giving a final enzyme concentration of 50 ng/well.
The reaction was incubated at room temperature for 1 hr on a plate shaker and was stopped by washing the plate. The primary antibody incubation step was for 1 hour at room temperature using PT66 phosphotyrosine antibody (Sigma 1:5000 dilution). After washing, the plate was then incubated (1 hr room temp) with the secondary antibody solution of anti-mouse HRP-conjugated antibody (Amersham 1:5000 dilution). After another wash step, plates were developed using 100 μL TMB substrate solution (KPL) and then quenched with KPL stop solution. These quenched plates were read at 450 nm on a Molecular Devices spectrophotomer plate reader. For IC50 generation, compounds were added prior to the enzyme initiation. […]

Sequence of Flk-1 (P35918 20-1345): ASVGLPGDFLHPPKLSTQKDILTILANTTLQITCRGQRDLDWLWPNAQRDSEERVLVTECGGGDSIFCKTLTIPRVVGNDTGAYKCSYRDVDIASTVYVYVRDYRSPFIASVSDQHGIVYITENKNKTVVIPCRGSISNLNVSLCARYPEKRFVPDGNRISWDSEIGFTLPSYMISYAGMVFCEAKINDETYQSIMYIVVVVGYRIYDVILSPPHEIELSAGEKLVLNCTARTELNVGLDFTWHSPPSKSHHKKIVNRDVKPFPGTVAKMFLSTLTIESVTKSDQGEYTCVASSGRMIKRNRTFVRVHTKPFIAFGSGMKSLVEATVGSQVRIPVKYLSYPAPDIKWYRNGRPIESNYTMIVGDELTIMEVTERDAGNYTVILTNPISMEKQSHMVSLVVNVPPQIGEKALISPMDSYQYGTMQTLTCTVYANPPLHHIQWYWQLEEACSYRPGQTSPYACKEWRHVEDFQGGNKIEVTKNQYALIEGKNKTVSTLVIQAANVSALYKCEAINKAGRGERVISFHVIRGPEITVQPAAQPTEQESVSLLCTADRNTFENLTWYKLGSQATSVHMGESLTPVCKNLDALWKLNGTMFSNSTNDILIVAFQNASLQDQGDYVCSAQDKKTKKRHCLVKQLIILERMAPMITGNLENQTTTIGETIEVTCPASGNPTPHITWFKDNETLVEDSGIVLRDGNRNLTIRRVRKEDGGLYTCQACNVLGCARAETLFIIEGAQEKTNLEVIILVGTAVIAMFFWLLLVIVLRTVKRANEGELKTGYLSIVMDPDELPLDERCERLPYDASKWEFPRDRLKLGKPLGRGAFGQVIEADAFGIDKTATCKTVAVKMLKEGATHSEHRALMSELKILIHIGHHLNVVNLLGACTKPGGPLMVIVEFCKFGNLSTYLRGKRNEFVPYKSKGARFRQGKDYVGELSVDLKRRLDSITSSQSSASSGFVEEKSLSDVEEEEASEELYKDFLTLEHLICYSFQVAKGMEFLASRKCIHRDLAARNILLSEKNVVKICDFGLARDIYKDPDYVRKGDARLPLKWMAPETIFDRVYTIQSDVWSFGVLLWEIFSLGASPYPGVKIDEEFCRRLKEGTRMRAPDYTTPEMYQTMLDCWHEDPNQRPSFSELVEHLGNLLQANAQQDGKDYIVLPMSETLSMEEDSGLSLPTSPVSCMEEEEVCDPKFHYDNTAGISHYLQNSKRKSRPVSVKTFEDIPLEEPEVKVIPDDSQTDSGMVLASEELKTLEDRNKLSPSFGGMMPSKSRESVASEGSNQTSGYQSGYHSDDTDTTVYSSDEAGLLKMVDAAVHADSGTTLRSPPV

| SMILES | neovascularization of the joint [1] | IC50 (Flk-1) [nM] |
| --- | --- | --- |
| CO[C@@H]1[C@H](OC(=O)NC(=O)CCl)CC[C@]2(CO2)[C@H]1[C@@]1(C)O[C@@H]1CC=C(C)C [AGM-170] | prevent neovascularization of the joint |  |
| Cc1ccc(-n2nc(C(C)(C)C)cc2NC(=O)Nc2ccc(OCCN3CCOCC3)c3ccccc23)cc1 [{[3-(tert-butyl)-1-(4-methylphenyl)pyrazol-5-yl]amino}-N-[4-(2-morpholin-4-ylethoxy)naphthyl]carboxamide] |  | < 1000 |
